Laboratory results published in ChEMBL document CHEMBL4033734, “Synthesis of 3- and 29-substituted celastrol derivatives and structure-activity relationship studies of their cytotoxic activities” (Bioorg Med Chem Lett, 2017).
pIC50: −log10 of the molar value.

Legend:
A549 [1] = experiment: Cytotoxic activity against human A549 cells incubated for 48 hrs by MTT assay; assay type: functional, cell-based; details: A549, 48 h
Bel-7402 = experiment: Cytotoxic activity against human Bel7402 cells incubated for 48 hrs by MTT assay; assay type: functional, cell-based; details: Bel-7402, 48 h
SGC-7901 = experiment: Cytotoxic activity against human SGC7901 cells incubated for 48 hrs by MTT assay; assay type: functional, cell-based; details: SGC-7901, 48 h
HeLa = experiment: Cytotoxic activity against human HeLa cells incubated for 48 hrs by MTT assay; assay type: functional, cell-based
HepG2 = experiment: Cytotoxic activity against human HepG2 cells incubated for 48 hrs by MTT assay; assay type: functional, cell-based; details: HepG2, 48 h
Mus musculus [2] = experiment: Toxicity in ip dosed nude mouse assessed as induction of mouse fatality; assay type: organism-based; details: in vivo
Mus musculus [3] = experiment: Toxicity in nude mouse xenografted with human A549 cells assessed as induction of mouse fatality at 12 mg/kg, ig dosed every day; assay type: organism-based; details: in vivo, po
Mus musculus [4] = experiment: Toxicity in nude mouse xenografted with human A549 cells assessed as change in body weight at 12 mg/kg, ig dosed every day (reference value: 26.5 g); assay type: organism-based; details: in vivo, po
A549 [5] = experiment: Antitumor activity against human A549 cells xenografted in nude mouse assessed as relative tumor volume at 12 mg/kg, ig dosed every day relative to initial tumor volume; assay type: functional
A549 [6] = experiment: Antitumor activity against human A549 cells xenografted in nude mouse assessed as tumor growth inhibition at 12 mg/kg, ig dosed every day; assay type: functional; details: A549, po, read-out: TGI

CC(=O)N1CCN(C(=O)OC2=C(C)C3=CC=C4[C@@](C)(CC[C@@]5(C)[C@@H]6C[C@](C)(C(=O)OCc7ccccc7)CC[C@]6(C)CC[C@]45C)C3=CC2=O)CC1 showed a pIC50 (A549 [1]) of 5.14, a pIC50 (Bel-7402) of 5.37 and a pIC50 (SGC-7901) of 5.44. For the same molecule, the pIC50 (HeLa) was 5.87 and the pIC50 (HepG2) was 5.24.

With CC1=C(O)C(=O)C=C2C1=CC=C1[C@@]2(C)CC[C@@]2(C)[C@@H]3C[C@](C)(C(=O)OCc4ccc(I)cc4)CC[C@]3(C)CC[C@]12C the pIC50 (A549 [1]) was 5.11, the pIC50 (Bel-7402) was 6.07 and the pIC50 (SGC-7901) was 6.09. For the same molecule, the pIC50 (HeLa) was 5.88 and the pIC50 (HepG2) was 5.71.

In the case of CC1=C(O)C(=O)C=C2C1=CC=C1[C@@]2(C)CC[C@@]2(C)[C@@H]3C[C@](C)(C(=O)OC(C)C)CC[C@]3(C)CC[C@]12C, the pIC50 (A549 [1]) was 5.47, the pIC50 (Bel-7402) was 6.37 and the pIC50 (SGC-7901) was 6.33. It also gave a pIC50 (HeLa) of 5.76 and a pIC50 (HepG2) of 6.49.

For CCCCCCOC(=O)[C@]1(C)CC[C@]2(C)CC[C@]3(C)C4=CC=C5C(=CC(=O)C(O)=C5C)[C@]4(C)CC[C@@]3(C)[C@@H]2C1, the pIC50 (A549 [1]) was 5.03, the pIC50 (Bel-7402) was 5.66 and the pIC50 (SGC-7901) was 5.80. The pIC50 (HeLa) was 5.74 and the pIC50 (HepG2) was 5.76.

Molecule CCCOC(=O)[C@]1(C)CC[C@]2(C)CC[C@]3(C)C4=CC=C5C(=CC(=O)C(O)=C5C)[C@]4(C)CC[C@@]3(C)[C@@H]2C1 has a pIC50 (A549 [1]) of 5.67, a pIC50 (Bel-7402) of 6.39 and a pIC50 (SGC-7901) of 6.33. It also gave a pIC50 (HeLa) of 5.86 and a pIC50 (HepG2) of 6.55.

For CC1=C(OC(=O)N2CCOCC2)C(=O)C=C2C1=CC=C1[C@@]2(C)CC[C@@]2(C)[C@@H]3C[C@](C)(C(=O)OCc4ccccc4)CC[C@]3(C)CC[C@]12C, the pIC50 (A549 [1]) was 5.03, the pIC50 (Bel-7402) was 5.81 and the pIC50 (SGC-7901) was 5.75. It also gave a pIC50 (HeLa) of 5.81 and a pIC50 (HepG2) of 5.87.

With CC1=C(O)C(=O)C=C2C1=CC=C1[C@@]2(C)CC[C@@]2(C)[C@@H]3C[C@](C)(C(=O)O)CC[C@]3(C)CC[C@]12C [CELASTROL] the pIC50 (A549 [1]) was 5.67, the pIC50 (Bel-7402) was 6.36 and the pIC50 (SGC-7901) was 6.06. The pIC50 (HeLa) was 6.08, the pIC50 (HepG2) was 6.24 and the Activity (Mus musculus [2]) was “Toxic”. For the same molecule, the Activity (Mus musculus [3]) was “Toxic”, the Activity (Mus musculus [4]) was 25.5 g and the “fold change (FC)” value (A549 [5]) was 0.84. For the same molecule, the inhibition in vivo at 12 mg/kg (A549 [6]) was 62%.

For CC1=C(O)C(=O)C=C2C1=CC=C1[C@@]2(C)CC[C@@]2(C)[C@@H]3C[C@](C)(C(=O)OCc4ccccc4)CC[C@]3(C)CC[C@]12C, the pIC50 (A549 [1]) was 5.63, the pIC50 (Bel-7402) was 6.70 and the pIC50 (SGC-7901) was 6.51. It also gave a pIC50 (HeLa) of 6.34 and a pIC50 (HepG2) of 6.10.

Work on CC1=C(OC(=O)N2CCCCC2C)C(=O)C=C2C1=CC=C1[C@@]2(C)CC[C@@]2(C)[C@@H]3C[C@](C)(C(=O)OCc4ccccc4)CC[C@]3(C)CC[C@]12C (stereo not given in full) yielded a pIC50 (A549 [1]) of 4.82, a pIC50 (Bel-7402) of 5.30 and a pIC50 (SGC-7901) of 5.33. The pIC50 (HeLa) was 5.37 and the pIC50 (HepG2) was 5.09.

Molecule CC1=C(O)C(=O)C=C2C1=CC=C1[C@@]2(C)CC[C@@]2(C)[C@@H]3C[C@](C)(C(=O)OCC(C)C)CC[C@]3(C)CC[C@]12C has a pIC50 (A549 [1]) of 5.97, a pIC50 (Bel-7402) of 6.28 and a pIC50 (SGC-7901) of 6.62. For the same molecule, the pIC50 (HeLa) was 6.39 and the pIC50 (HepG2) was 6.47.

CC1=C(OC(=O)N2CCCCC2)C(=O)C=C2C1=CC=C1[C@@]2(C)CC[C@@]2(C)[C@@H]3C[C@](C)(C(=O)OCc4ccccc4)CC[C@]3(C)CC[C@]12C gave a pIC50 (A549 [1]) of 4.92, a pIC50 (Bel-7402) of 5.49 and a pIC50 (SGC-7901) of 5.52. For the same molecule, the pIC50 (HeLa) was 5.55 and the pIC50 (HepG2) was 5.13.

Molecule C=CCOC(=O)[C@]1(C)CC[C@]2(C)CC[C@]3(C)C4=CC=C5C(=CC(=O)C(O)=C5C)[C@]4(C)CC[C@@]3(C)[C@@H]2C1 has a pIC50 (A549 [1]) of 5.83, a pIC50 (Bel-7402) of 6.20 and a pIC50 (SGC-7901) of 6.48. The pIC50 (HeLa) was 6.51 and the pIC50 (HepG2) was 6.51.

CCOC(=O)[C@]1(C)CC[C@]2(C)CC[C@]3(C)C4=CC=C5C(=CC(=O)C(O)=C5C)[C@]4(C)CC[C@@]3(C)[C@@H]2C1 was tested, and the pIC50 (A549 [1]) was 5.84, the pIC50 (Bel-7402) was 6.04 and the pIC50 (SGC-7901) was 6.62. It also gave a pIC50 (HeLa) of 6.08 and a pIC50 (HepG2) of 6.31.

CCCCCOC(=O)[C@]1(C)CC[C@]2(C)CC[C@]3(C)C4=CC=C5C(=CC(=O)C(O)=C5C)[C@]4(C)CC[C@@]3(C)[C@@H]2C1 gave a pIC50 (A549 [1]) of 5.64, a pIC50 (Bel-7402) of 6.09 and a pIC50 (SGC-7901) of 6.34. It also gave a pIC50 (HeLa) of 6.25 and a pIC50 (HepG2) of 6.36.
